Each block holds one molecule with its values, some of them ahead of it.
Assays:
PC3 cells [1] = assay: Eicosanoid add-back to composition-treated PC3 cells; type: cell-based, human
colon (LS174) = assay: Effect of 13-S-HODE on proliferation, LS174; type: cell-based; details: Homo sapiens, read-out: IC50 (inhibition of cancer cell line growth)
Experimental: (§1) The relative ability of 13-S-HODE to inhibit prostate and colon cancer cell lines with an IC50 of about 3-4 uM. This is of importance when compared to the content of 13-S-HODE in the inventive composition. That is, as shown in Table 2 above there is sufficient 13-S-HODE within the composition to account for inhibition of cell growth. No doubt other factors within the composition also contribute to its ability to inhibit prostate and colon tumor cell growth but the ability of 13-S-HODE within the composition to be able to do this is of obvious interest.

[2] = tested on: lung adenocarcinoma (A549); assay: Effect of 13-S-HODE on proliferation, A549; type: cell-based, human
[3] = tested on: human tumor prostate (PC3); assay: Effect of 13-S-HODE on proliferation, PC3; type: cell-based; details: read-out: IC50 (inhibition of cancer cell line growth)
Experimental: as §1

PC3 cells [4] = assay: Cytotoxicity in PC3 cells; type: cell-based, human
PC3 cells [5] = assay: Phosphoprotein analyses of PC3 cell lysates; type: cell-based, human; parameters: key to Cyclin D1 / Cyclin D3 / Bcl-XL / Bax / Bcl-2 / pAKT / survivin / pRb content / Rb content: ↓ indicates reduction, inhibition, or downregulation; ↑ indicates enhancement, activation, or upregulation; details: nontoxic concentrations
From the text: The data in Table 5 were derived from phosphoprotein analyses of PC3 cell lysates after treatment with nontoxic concentrations of either the inventive compositions or baicalein, a component of Scutellaria. Proteins were separated using gel electrophoresis and then the gel was probed with monoclonal antibodies to the proteins. The antibodies could detect differences in phosphorylation status of the proteins. Gels were then quantified using a densitometer. There are many similarities in the changes in phosphorylation status signaling similar up regulation or down regulation of proteins involved in cell cycle block (e.g. cyclin D1, cyclin D3 and pRB) or proteins associated with apoptosis (e.g. surviving, Bcl-XL and Bcl-2).

PC3 cells [6] = assay: Cell cycle distribution by flow cytometry; type: cell-based, human
Experimental: The herbal product produces a clear G2/M accumulation of cells that is evident even at concentrations as low as 0.28 ul/ml. At higher concentrations, the G2/M phase is more evident as is a sub G0 peak indicative of apoptosis. Concomitant with the rise in numbers of cells in G2/M there is a progressive concentration-dependent fall of cells in the G1 portion of the cell cycle. Only 10% of control cells are routinely present at the G2/M phase, while treatment with 0.57 ul/ml of the inventive compositions results in greater than 40% of cells in a G2/M block. […] The G2/M percentage of cells is small (small dark shaded peak to the right in the figure. In the second plot (upper right) PC3 cells have been treated with 0.28 ul of the inventive compositions/ml tissue culture media. The size of the G2/M peak increases. The plot in the lower left (0.57 ul of the inventive compositions/ml) and in the lower right (1.14 ul/ml) show an increasing cell cycle block due to increased concentration of the inventive compositions.

12-LOX = molecular target: T1, 12-LOX (Homo sapiens, UniProt P18054); assay: 12-HETE levels / 12-LOX activity in PC3 cells; type: cell-based; parameters: key: ↓ indicates reduction, inhibition, or downregulation; ↑ indicates enhancement, activation, or upregulation
T1 construct: endogenous in cells; host or cells: PC3 human prostate cancer cells
T1 sequence (P18054 1-663): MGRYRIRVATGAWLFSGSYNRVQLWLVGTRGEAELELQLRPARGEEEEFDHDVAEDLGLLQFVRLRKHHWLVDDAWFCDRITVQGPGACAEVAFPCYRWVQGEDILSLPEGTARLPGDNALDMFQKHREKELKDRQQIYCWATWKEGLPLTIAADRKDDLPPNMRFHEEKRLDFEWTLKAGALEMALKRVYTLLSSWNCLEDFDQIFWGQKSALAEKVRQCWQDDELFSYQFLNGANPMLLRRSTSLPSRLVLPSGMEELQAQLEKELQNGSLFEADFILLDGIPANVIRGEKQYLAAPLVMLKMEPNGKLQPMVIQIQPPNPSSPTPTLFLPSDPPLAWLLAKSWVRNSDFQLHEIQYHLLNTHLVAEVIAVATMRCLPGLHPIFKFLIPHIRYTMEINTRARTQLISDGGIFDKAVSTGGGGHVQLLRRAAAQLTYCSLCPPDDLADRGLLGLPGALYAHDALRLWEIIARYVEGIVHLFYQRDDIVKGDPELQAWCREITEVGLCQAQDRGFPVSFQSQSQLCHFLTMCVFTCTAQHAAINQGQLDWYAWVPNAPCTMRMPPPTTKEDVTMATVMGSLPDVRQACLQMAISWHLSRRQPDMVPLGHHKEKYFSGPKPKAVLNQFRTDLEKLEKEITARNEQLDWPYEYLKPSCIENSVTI

PC3 cells [7] = assay: Western blot of 5-LOX, 12-LOX and COX-2 protein in PC3 cells; type: cell-based, human
[8] = growth inhibitory concentrations of the inventive compositions

SMILES: CCCCC/C=C\C/C=C\C/C=C\C=C\[C@@H](O)CCCC(=O)O [5-HETE]
- cell proliferation after adding the eicosanoid to composition-treated PC3 cells (PC3 cells [1]; [8]): failed to block cellular proliferation

SMILES: CCCCC/C=C\C[C@H](O)/C=C/C=C\C/C=C\CCCC(=O)O [12-HETE]
- cell proliferation after adding the eicosanoid to composition-treated PC3 cells (PC3 cells [1]; inventive compositions 1 ul/ml): near doubling of cell proliferation

- IC50 [3]: 3 to 4 µM
SMILES: CCCCCC(O)/C=C/C=C\CCCCCCCC(=O)O (stereo not drawn) [13-S-HODE, 13-hydroxyoctadeca-9Z, 11E-dienoic acid]
- IC50 (colon (LS174)): 3 to 4 µM
- inhibition of cell growth [2]: not lung adenocarcinoma (A549) cell growth

- 12-LOX activity (12-LOX): ↓
SMILES: O=c1cc(-c2ccccc2)oc2cc(O)c(O)c(O)c12 [Baicalein, baicalein]
- Cytotoxicity (PC3 cells [4]): Yes
- Bax (PC3 cells [5]): ↑
- Bcl-2 (PC3 cells [5]): ↓
- Bcl-XL (PC3 cells [5]): ↓
- Cyclin D1 (PC3 cells [5]): ↓
- Cyclin D3 (PC3 cells [5]): ↓
- P27 (PC3 cells [5]): Strong ↓
- Rb content (PC3 cells [5]): ↑
- p21 (PC3 cells [5]): Strong ↓
- pAKT (PC3 cells [5]): ↓
- pRb content (PC3 cells [5]): ↓
- survivin (PC3 cells [5]): ↓
- Cell cycle block (PC3 cells [6]): Yes

SMILES: CCCCC[C@H](O)/C=C/[C@H]1[C@H](O)CC(=O)[C@@H]1C/C=C\CCCC(=O)O [PGE2]
- cell proliferation after adding the eicosanoid to composition-treated PC3 cells (PC3 cells [1]; [8]): failed to block cellular proliferation

SMILES: CC(c1cc2ccccc2s1)N(O)C(N)=O (stereo not drawn) [Zileuton]
- cellular content of 5-LOX protein (Western blot) (PC3 cells [7]): did not produce any change in relative 5-LOX enzyme content within cells

Source: patent US7563462B2, “Methods for modulating eicosanoid metabolism” (The University of Texas MD Anderson Cancer Center, priority 2005, dated 2009)
